How the values were obtained:
Format in all cases: cell-based
[1] = test system: C. lusitaniae; assay: Antifungal disk diffusion susceptibility test (CLSI M44); settings: Clavispora lusitaniae, C. lusitaniae; for zone of inhibition at 150 µg/disc: 150 μg/disc; for zone of inhibition at 500 µg/disc: 500 μg/disc
Method: (§1) Filamentous fungi and yeasts strains, from clinical origin, were supplied by Microbiology Service from The Princess Hospital, Madrid. They are detailed in Table IX.
(§2) Filamentous fungi and yeast cells suspensions in distilled water was prepared from a culture of 24-48 h, depending on species, in Sabouraud agar. Each suspension was adjusted to a fixed size inoculum of 1-5×10^8 CFU/ml with a spectrophotometer (Ferraro, MJ National Committee for Clinical Laboratory Standards. 2000).
(§3) Antifungal susceptibility tests were developed following the standardized methodology detailed in document CLSI: M44-4: Method for Antifungal Disk diffusion susceptibility testing of yeasts consisting of disk diffusion on agar Muller-Hinton (supplemented with 2% glucose).

[2] = test system: C. albicans; assay: as above; settings: Candida albicans, C. albicans; for zone of inhibition at 150 µg/disc: 150 μg/disc; for zone of inhibition at 500 µg/disc: 500 μg/disc
Method: as §1, §2, §3

[3] = test system: A. fumigatus; assay: as above; settings: Aspergillus fumigatus, A. fumigatus; for zone of inhibition at 150 µg/disc: 150 μg/disc; for zone of inhibition at 500 µg/disc: 500 μg/disc
Method: as §1, §2, §3

[4] = test system: C. parapsilosis; assay: as above; settings: Lodderomyces parapsilosis, C. parapsilosis; for zone of inhibition at 150 µg/disc: 150 μg/disc; for zone of inhibition at 500 µg/disc: 500 μg/disc
Method: as §1, §2, §3

[5] = test system: A. niger; assay: as above; settings: Aspergillus niger, A. niger; for zone of inhibition at 150 µg/disc: 150 μg/disc; for zone of inhibition at 500 µg/disc: 500 μg/disc
Method: as §1, §2, §3

[6] = test system: A. flavus; assay: as above; settings: Aspergillus flavus, A. flavus; for zone of inhibition at 150 µg/disc: 150 μg/disc; for zone of inhibition at 500 µg/disc: 500 μg/disc
Method: as §1, §2, §3

[7] = test system: A. terreus; assay: as above; settings: Aspergillus terreus, A. terreus; for zone of inhibition at 150 µg/disc: 150 μg/disc; for zone of inhibition at 500 µg/disc: 500 μg/disc
Method: as §1, §2, §3

[8] = test system: S. cerevisiae; assay: as above; settings: Saccharomyces cerevisiae, S. cerevisiae; for zone of inhibition at 150 µg/disc: 150 μg/disc; for zone of inhibition at 500 µg/disc: 500 μg/disc
Method: as §1, §2, §3

[9] = test system: C. tropicalis; assay: as above; settings: Candida tropicalis, C. tropicalis; for zone of inhibition at 150 µg/disc: 150 μg/disc; for zone of inhibition at 500 µg/disc: 500 μg/disc
Method: as §1, §2, §3

[10] = test system: C. guillermondii; assay: as above; settings: C. guillermondii; for zone of inhibition at 150 µg/disc: 150 μg/disc; for zone of inhibition at 500 µg/disc: 500 μg/disc
Method: as §1, §2, §3

[11] = test system: N. carnea; assay: Kirby-Bauer disk diffusion susceptibility test; settings: 300 μg/disc
Method: (§4) Bacterial strains, from clinical origin, were supplied by the National Center for Microbiology, Institute of Health Carlos III (Majadahonda, Madrid). They are detailed in Table 1.
(§5) Bacterial cells suspension in sterile saline was prepared from a culture of 24-72 h, depending on bacterial species, in Mueller-Hinton Agar with 5% sheep blood. Each suspension was adjusted to a fixed size inoculum of 1-5×10^8 CFU/ml with a spectrophotometer (Ferraro, MJ National Committee for Clinical Laboratory Standards. 2000).
(§6) Kirby-Bauer disk diffusion susceptibility test protocol was utilized to determine the sensitivity or resistance of pathogenic bacteria against the compounds and others antibiotics. The absence of growth around the disks is an indirect measure of the ability of this compound to inhibit an organism (Kirby, W., et al., Antibiotics Annu. 1956-1957:892). After 18 to 72 hours of incubation at 37° C., with or without CO2, under aerobic or anaerobic conditions, depending on the bacterial species, halo of growth inhibition were obtained and evaluated.
(§7) Interpretation of susceptibility and resistance was based on the presence or absence of a zone of inhibition surrounding the disk. Kirby-Bauer disk diffusion susceptibility test is a common method which uses antibiotic-impregnated wafers to test whether bacteria are affected by antibiotics. The size of the zone of inhibition depends on how effective the antibiotic is at stopping the growth of the bacterium. A stronger antibiotic will create a larger zone, because a lower concentration of the antibiotic is enough to stop growth.
(§8) All compounds were tested at 300 μg/disc.

[12] = test system: A. baumannii; assay: Kirby-Bauer disk diffusion susceptibility test; settings: 300 μg/disc
Method: as §4, §5, §6, §7, §8

[13] = test system: T. pulmonis; assay: Kirby-Bauer disk diffusion susceptibility test; settings: 300 μg/disc
Method: as §4, §5, §6, §7, §8

[14] = test system: N. cyriacigeorgica; assay: Kirby-Bauer disk diffusion susceptibility test; settings: 300 μg/disc
Method: as §4, §5, §6, §7, §8

SMILES | zone of inhibition at 150 µg/disc [1] | zone of inhibition at 500 µg/disc [1] | zone of inhibition at 150 µg/disc [2] | zone of inhibition at 500 µg/disc [2] | zone of inhibition at 150 µg/disc [3] | zone of inhibition at 500 µg/disc [3] | zone of inhibition at 150 µg/disc [4] | zone of inhibition at 500 µg/disc [4] | zone of inhibition at 150 µg/disc [5] | zone of inhibition at 500 µg/disc [5] | zone of inhibition at 150 µg/disc [6] | zone of inhibition at 500 µg/disc [6] | zone of inhibition at 150 µg/disc [7] | zone of inhibition at 500 µg/disc [7] | zone of inhibition at 150 µg/disc [8] | zone of inhibition at 500 µg/disc [8] | zone of inhibition at 150 µg/disc [9] | zone of inhibition at 500 µg/disc [9] | zone of inhibition at 150 µg/disc [10] | zone of inhibition at 500 µg/disc [10] | further results
NNC(=O)CC(=O)NNc1ccccc1 [MSG-187] | < 10 mm | 20 mm | < 10 mm | 22 mm | < 10 mm | 32 mm | < 10 mm | 17 mm | < 10 mm | 40 mm | < 10 mm | 36 mm | < 10 mm | < 10 mm | < 10 mm | < 10 mm | < 10 mm | 18 mm | < 10 mm | 22 mm | 
NNC(=O)C(=O)NNc1ccc(F)cc1 [MSG-193] | 15 mm | > 40 mm | 20 mm | > 40 mm | 20 mm | > 40 mm | 18 mm | > 40 mm | 15 mm | > 40 mm | 15 mm | > 40 mm | 12 mm | 32 mm | 22 mm | 40 mm | 30 mm | > 40 mm | 20 mm | 40 mm | 
COc1ccc(NNC(=O)C(=O)NN)cc1 [MSG-210] | 39 mm | > 40 mm | 32 mm | > 40 mm | 10 mm | 16 mm | 28 mm | 32 mm | 27 mm | 40 mm | 10 mm | 9 mm | 19 mm | 22 mm | 28 mm | 30 mm | 34 mm | 36 mm | 32 mm | 35 mm | Activity detected (mm) [11]: 11 mm; Activity detected (mm) [12]: 18 mm; Activity detected (mm) [13]: 20 mm; Activity detected (mm) [14]: 15 mm
